# Experimental data reported in the NIST ThermoML archive (doi:10.1021/je500886a).
# ± gives the expanded uncertainty stated by the source.
# Assay: mn = molality of the nth substance listed, in mol/kg
# Details: 101 kPa, Liquid
smiles,measurement,setting,value
OC[C@@H](O)C(O)[C@H](O)CO [D-arabitol] + O,viscosity,"288.15 K, m1 = 0.05025",1.162 ± 0.022 mPa·s
same,mass density,"288.15 K, m1 = 0.0542",1001.87 ± 0.23 kg/m3
same,viscosity,"288.15 K, m1 = 0.06886",1.172 ± 0.022 mPa·s
same,mass density,"288.15 K, m1 = 0.07304",1002.82 ± 0.23 kg/m3
same,mass density,"288.15 K, m1 = 0.08867",1003.59 ± 0.24 kg/m3
same,viscosity,"288.15 K, m1 = 0.09155",1.183 ± 0.022 mPa·s
same,mass density,"288.15 K, m1 = 0.1053",1004.4 ± 0.24 kg/m3
same,viscosity,"288.15 K, m1 = 0.1061",1.189 ± 0.022 mPa·s
same,viscosity,"288.15 K, m1 = 0.1258",1.198 ± 0.022 mPa·s
same,mass density,"288.15 K, m1 = 0.1323",1005.72 ± 0.24 kg/m3
same,viscosity,"288.15 K, m1 = 0.1507",1.209 ± 0.022 mPa·s
same,mass density,"288.15 K, m1 = 0.1512",1006.64 ± 0.24 kg/m3
same,viscosity,"298.15 K, m1 = 0.05025",0.906 ± 0.017 mPa·s
same,mass density,"298.15 K, m1 = 0.0542",999.73 ± 0.23 kg/m3
same,viscosity,"298.15 K, m1 = 0.06886",0.913 ± 0.017 mPa·s
same,mass density,"298.15 K, m1 = 0.07304",1000.65 ± 0.23 kg/m3
same,mass density,"298.15 K, m1 = 0.08867",1001.41 ± 0.23 kg/m3
same,viscosity,"298.15 K, m1 = 0.09155",0.92 ± 0.018 mPa·s
same,mass density,"298.15 K, m1 = 0.1053",1002.21 ± 0.23 kg/m3
same,viscosity,"298.15 K, m1 = 0.1061",0.925 ± 0.018 mPa·s
same,viscosity,"298.15 K, m1 = 0.1258",0.931 ± 0.018 mPa·s
same,mass density,"298.15 K, m1 = 0.1323",1003.5 ± 0.24 kg/m3
same,viscosity,"298.15 K, m1 = 0.1507",0.94 ± 0.018 mPa·s
same,mass density,"298.15 K, m1 = 0.1512",1004.39 ± 0.24 kg/m3
same,viscosity,"308.15 K, m1 = 0.05025",0.73 ± 0.014 mPa·s
same,mass density,"308.15 K, m1 = 0.0542",996.7 ± 0.23 kg/m3
same,viscosity,"308.15 K, m1 = 0.06886",0.735 ± 0.014 mPa·s
same,mass density,"308.15 K, m1 = 0.07304",997.61 ± 0.23 kg/m3
same,mass density,"308.15 K, m1 = 0.08867",998.35 ± 0.23 kg/m3
same,viscosity,"308.15 K, m1 = 0.09155",0.74 ± 0.015 mPa·s
same,mass density,"308.15 K, m1 = 0.1053",999.14 ± 0.23 kg/m3
same,viscosity,"308.15 K, m1 = 0.1061",0.744 ± 0.015 mPa·s
same,viscosity,"308.15 K, m1 = 0.1258",0.748 ± 0.015 mPa·s
same,mass density,"308.15 K, m1 = 0.1323",1000.41 ± 0.23 kg/m3
same,viscosity,"308.15 K, m1 = 0.1507",0.754 ± 0.015 mPa·s
same,mass density,"308.15 K, m1 = 0.1512",1001.3 ± 0.23 kg/m3
same,viscosity,"318.15 K, m1 = 0.05025",0.604 ± 0.012 mPa·s
same,mass density,"318.15 K, m1 = 0.0542",992.83 ± 0.24 kg/m3
same,viscosity,"318.15 K, m1 = 0.06886",0.608 ± 0.012 mPa·s
same,mass density,"318.15 K, m1 = 0.07304",993.72 ± 0.24 kg/m3
same,mass density,"318.15 K, m1 = 0.08867",994.45 ± 0.24 kg/m3
same,viscosity,"318.15 K, m1 = 0.09155",0.611 ± 0.012 mPa·s
same,mass density,"318.15 K, m1 = 0.1053",995.22 ± 0.24 kg/m3
same,viscosity,"318.15 K, m1 = 0.1061",0.613 ± 0.012 mPa·s
same,viscosity,"318.15 K, m1 = 0.1258",0.617 ± 0.013 mPa·s
same,mass density,"318.15 K, m1 = 0.1323",996.46 ± 0.23 kg/m3
same,viscosity,"318.15 K, m1 = 0.1507",0.621 ± 0.013 mPa·s
same,mass density,"318.15 K, m1 = 0.1512",997.33 ± 0.23 kg/m3
O=C[C@H](O)[C@@H](O)[C@H](O)[C@H](O)CO [D-glucose] + O,viscosity,"288.15 K, m1 = 0.0513",1.167 ± 0.022 mPa·s
same,mass density,"288.15 K, m1 = 0.05146",1002.66 ± 0.23 kg/m3
same,viscosity,"288.15 K, m1 = 0.06904",1.176 ± 0.022 mPa·s
same,mass density,"288.15 K, m1 = 0.07233",1004.08 ± 0.24 kg/m3
same,viscosity,"288.15 K, m1 = 0.09026",1.188 ± 0.022 mPa·s
same,mass density,"288.15 K, m1 = 0.09244",1005.44 ± 0.24 kg/m3
same,viscosity,"288.15 K, m1 = 0.1114",1.2 ± 0.022 mPa·s
same,viscosity,"288.15 K, m1 = 0.1294",1.212 ± 0.022 mPa·s
same,viscosity,"288.15 K, m1 = 0.149",1.219 ± 0.022 mPa·s
same,viscosity,"298.15 K, m1 = 0.0513",0.911 ± 0.017 mPa·s
same,mass density,"298.15 K, m1 = 0.05146",1000.54 ± 0.23 kg/m3
same,viscosity,"298.15 K, m1 = 0.06904",0.918 ± 0.018 mPa·s
same,mass density,"298.15 K, m1 = 0.07233",1001.94 ± 0.23 kg/m3
same,viscosity,"298.15 K, m1 = 0.09026",0.926 ± 0.018 mPa·s
same,mass density,"298.15 K, m1 = 0.09244",1003.27 ± 0.24 kg/m3
same,mass density,"298.15 K, m1 = 0.1096",1004.41 ± 0.24 kg/m3
same,viscosity,"298.15 K, m1 = 0.1114",0.935 ± 0.018 mPa·s
same,mass density,"298.15 K, m1 = 0.1241",1005.36 ± 0.24 kg/m3
same,viscosity,"298.15 K, m1 = 0.1294",0.942 ± 0.018 mPa·s
same,viscosity,"298.15 K, m1 = 0.149",0.951 ± 0.018 mPa·s
same,viscosity,"308.15 K, m1 = 0.0513",0.735 ± 0.014 mPa·s
same,viscosity,"308.15 K, m1 = 0.06904",0.741 ± 0.015 mPa·s
same,mass density,"308.15 K, m1 = 0.07233",998.9 ± 0.23 kg/m3
same,viscosity,"308.15 K, m1 = 0.09026",0.747 ± 0.015 mPa·s
same,mass density,"308.15 K, m1 = 0.09244",1000.22 ± 0.23 kg/m3
same,mass density,"308.15 K, m1 = 0.1096",1001.34 ± 0.23 kg/m3
same,viscosity,"308.15 K, m1 = 0.1114",0.755 ± 0.015 mPa·s
same,mass density,"308.15 K, m1 = 0.1241",1002.28 ± 0.23 kg/m3
same,viscosity,"308.15 K, m1 = 0.1294",0.759 ± 0.015 mPa·s
same,mass density,"308.15 K, m1 = 0.1456",1003.66 ± 0.24 kg/m3
same,viscosity,"308.15 K, m1 = 0.149",0.764 ± 0.015 mPa·s
same,viscosity,"318.15 K, m1 = 0.0513",0.609 ± 0.012 mPa·s
same,mass density,"318.15 K, m1 = 0.05146",993.66 ± 0.24 kg/m3
same,viscosity,"318.15 K, m1 = 0.06904",0.613 ± 0.012 mPa·s
same,mass density,"318.15 K, m1 = 0.07233",995.03 ± 0.24 kg/m3
same,viscosity,"318.15 K, m1 = 0.09026",0.618 ± 0.013 mPa·s
same,mass density,"318.15 K, m1 = 0.09244",996.33 ± 0.23 kg/m3
same,mass density,"318.15 K, m1 = 0.1096",997.44 ± 0.23 kg/m3
same,viscosity,"318.15 K, m1 = 0.1114",0.623 ± 0.013 mPa·s
same,mass density,"318.15 K, m1 = 0.1241",998.37 ± 0.23 kg/m3
same,viscosity,"318.15 K, m1 = 0.1294",0.627 ± 0.013 mPa·s
same,mass density,"318.15 K, m1 = 0.1456",999.74 ± 0.23 kg/m3
same,viscosity,"318.15 K, m1 = 0.149",0.632 ± 0.013 mPa·s
OC[C@@H](O)[C@@H](O)[C@H](O)[C@H](O)CO [D-mannitol] + O,mass density,"288.15 K, m1 = 0.04909",1002.3 ± 0.35 kg/m3
same,viscosity,"288.15 K, m1 = 0.05269",1.176 ± 0.022 mPa·s
same,mass density,"288.15 K, m1 = 0.06889",1003.56 ± 0.36 kg/m3
same,viscosity,"288.15 K, m1 = 0.07011",1.189 ± 0.022 mPa·s
same,mass density,"288.15 K, m1 = 0.09002",1004.91 ± 0.36 kg/m3
same,viscosity,"288.15 K, m1 = 0.09107",1.203 ± 0.023 mPa·s
same,viscosity,"288.15 K, m1 = 0.1097",1.217 ± 0.023 mPa·s
same,mass density,"288.15 K, m1 = 0.1134",1006.38 ± 0.36 kg/m3
same,mass density,"288.15 K, m1 = 0.1266",1007.19 ± 0.36 kg/m3
same,viscosity,"288.15 K, m1 = 0.1293",1.23 ± 0.023 mPa·s
same,mass density,"288.15 K, m1 = 0.1469",1008.45 ± 0.37 kg/m3
same,viscosity,"288.15 K, m1 = 0.15",1.246 ± 0.023 mPa·s
same,mass density,"298.15 K, m1 = 0.04909",1000.12 ± 0.35 kg/m3
same,viscosity,"298.15 K, m1 = 0.05269",0.918 ± 0.018 mPa·s
same,mass density,"298.15 K, m1 = 0.06889",1001.34 ± 0.35 kg/m3
same,viscosity,"298.15 K, m1 = 0.07011",0.927 ± 0.018 mPa·s
same,mass density,"298.15 K, m1 = 0.09002",1002.62 ± 0.35 kg/m3
same,viscosity,"298.15 K, m1 = 0.09107",0.936 ± 0.018 mPa·s
same,viscosity,"298.15 K, m1 = 0.1097",0.945 ± 0.018 mPa·s
same,mass density,"298.15 K, m1 = 0.1134",1004.04 ± 0.36 kg/m3
same,mass density,"298.15 K, m1 = 0.1266",1004.82 ± 0.36 kg/m3
same,viscosity,"298.15 K, m1 = 0.1293",0.955 ± 0.019 mPa·s
same,mass density,"298.15 K, m1 = 0.1469",1006.03 ± 0.36 kg/m3
same,viscosity,"298.15 K, m1 = 0.15",0.964 ± 0.019 mPa·s
same,mass density,"308.15 K, m1 = 0.04909",997.07 ± 0.35 kg/m3
same,viscosity,"308.15 K, m1 = 0.05269",0.74 ± 0.015 mPa·s
same,mass density,"308.15 K, m1 = 0.06889",998.27 ± 0.35 kg/m3
same,viscosity,"308.15 K, m1 = 0.07011",0.747 ± 0.015 mPa·s
same,mass density,"308.15 K, m1 = 0.09002",999.54 ± 0.35 kg/m3
same,viscosity,"308.15 K, m1 = 0.09107",0.754 ± 0.015 mPa·s
same,viscosity,"308.15 K, m1 = 0.1097",0.761 ± 0.015 mPa·s
same,mass density,"308.15 K, m1 = 0.1134",1000.93 ± 0.35 kg/m3
same,mass density,"308.15 K, m1 = 0.1266",1001.71 ± 0.35 kg/m3
same,viscosity,"308.15 K, m1 = 0.1293",0.765 ± 0.015 mPa·s
same,mass density,"308.15 K, m1 = 0.1469",1002.9 ± 0.36 kg/m3
same,viscosity,"308.15 K, m1 = 0.15",0.774 ± 0.015 mPa·s
same,mass density,"318.15 K, m1 = 0.04909",993.22 ± 0.36 kg/m3
same,viscosity,"318.15 K, m1 = 0.05269",0.611 ± 0.013 mPa·s
same,mass density,"318.15 K, m1 = 0.06889",994.41 ± 0.36 kg/m3
same,viscosity,"318.15 K, m1 = 0.07011",0.617 ± 0.013 mPa·s
same,mass density,"318.15 K, m1 = 0.09002",995.65 ± 0.35 kg/m3
same,viscosity,"318.15 K, m1 = 0.09107",0.621 ± 0.013 mPa·s
same,viscosity,"318.15 K, m1 = 0.1097",0.627 ± 0.013 mPa·s
same,mass density,"318.15 K, m1 = 0.1134",997.03 ± 0.35 kg/m3
same,mass density,"318.15 K, m1 = 0.1266",997.8 ± 0.35 kg/m3
same,viscosity,"318.15 K, m1 = 0.1293",0.633 ± 0.013 mPa·s
same,mass density,"318.15 K, m1 = 0.1469",998.97 ± 0.35 kg/m3
same,viscosity,"318.15 K, m1 = 0.15",0.639 ± 0.013 mPa·s
